Source: US20220211796A1, “PEPTIDE ANTIBIOTICS AND METHODS OF USE THEREOF” (priority 2019, published 2022)
Values after ≈ are worked out from the molar mass of the structure shown. Numbered stars: 1 amine (or outer) side, 2 acyl side, 3 side chain; on linkers, the order of the positions; unused ones are H or OH. Bridge positions count the residues as written; N and C are the ends. Square brackets hold non-standard residues; d marks the D form. Peptide text beside a SMILES is read from it. TBMB = c1c(C[*:1])cc(C[*:3])cc1C[*:2]

What was measured:
[1] = tested on: human red blood cells (hRBC); experiment: Hemolytic activity; type: cell-based; settings: concentrations up to 256 μg/ml
Protocol: Fresh red human blood cells (hRBC) were washed and centrifuged at 3000 rpm for 5 min at 4° C. with PBS until a clear solution was obtained. Two-fold serial dilutions of each peptide in PBS from 0.5 μg/ml to 256 μg/ml were incubated with 0.25% (v/v) hRBC suspension at 37° C. for 1 h, and then centrifuged for 5 min at 3500 rpm in 96-well plate. 50 μl of the supernatant from each well was diluted with 50 μl pure water, and the OD at 415 nm was measured using microplate reader. Melittin at the same concentrations (200 μg/ml for complete lysis) was used as a positive control. Percent hemolysis was calculated according to the equation: […]
where complete hemolysis was defined as the average hemolysis of all wells containing a final concentration of melittin ranging from 50 to 400 μg/ml. Experiments were performed as triplicates at different days.

[2] = tested on: several Gram-positive strains (with one Gram-negative strain as control); experiment: MIC / antibiotic susceptibility, strains not singled out; type: cell-based; settings: vancomycin-sensitive bacteria
Protocol: (§1) The L-peptides identified from five different phage display libraries were catalogued as described previously and selected sequences were synthesized in D-enantiomeric form by SPPS for further investigation in several biological assays.
(§2) MICs were determined according to a 96-well microdilution protocol outlined by the Clinical and Laboratory Standard Institute (CLSI) guideline with modifications for peptide antibiotics reported by Wiegand et al.^35 Two-fold serial peptide dilutions were performed to go from 2560 μg/ml to 5 μg/ml in0.2% BSA and 0.01% acetic acid buffer in 96-well polypropylene plates (COSTAR, #3879). Dilution of bacterial suspensions (1:200) of different bacterial strains that were grown until 0.5 McFarland standard were prepared to obtain a final inoculum concentration of 8×10^5 CFU/ml in Mueller-Hinton broth.

[3] = tested on: low level vancomycin resistant E. faecium (vanB) ATCC 51299; experiment: microbe, parasite or virus in culture
Protocol: as §1, §2

[4] = tested on: Methicillin-resistant S. aureus (MRSA) ATCC 43300; experiment: microbe, parasite or virus in culture
Protocol: as §1, §2

B. subtilis ATCC 6633 = experiment: microbe, parasite or virus in culture
Protocol: as §1, §2

[5] = tested on: high level vancomycin resistant E. faecium (vanA) ATCC 51559; experiment: microbe, parasite or virus in culture
Protocol: as §1, §2

S. aureus ATCC 6538 = experiment: microbe, parasite or virus in culture
Protocol: as §1, §2

E. coli ATCC 25992 = experiment: microbe, parasite or virus in culture
Protocol: as §1, §2

E. faecalis ATCC 29121 = experiment: microbe, parasite or virus in culture
Protocol: as §1, §2

[6] = Table 6, low level vancomycin resistant E. faecium ATCC51299
[7] = Table 6, high level vancomycin resistant E. faecium ATCC51559
[8] = Table 5, low level vancomycin resistant E. faecium ATCC 51299

Compound	lysis / toxicity on red blood cells [1]	activity against vancomycin-sensitive bacterial strains [2]	activity against vanB / low-level vancomycin-resistant strain [3]	MIC VRE (vanB) [3, 6]	MIC MRSA ([4]; Table 6, MRSA ATCC43300)	MIC B. subtilis (B. subtilis ATCC 6633; Table 6, B. subtilis ATCC6633)	MIC VRE (vanA) [5, 7]	MIC S. aureus (S. aureus ATCC 6538; Table 6, S. aureus ATCC6538)	MIC E. coli (E. coli ATCC 25992; Table 6, E. Coli ATCC25992)	MIC E. faecalis (E. faecalis ATCC 29121; Table 6, E. faecalis ATCC29121)	MIC VRE (vanB) [3, 8]	MIC MRSA ([4]; ATCC 43300)	MIC B. subtilis (B. subtilis ATCC 6633; ATCC 6633)	MIC VRE (vanA) ([5]; ATCC 51559)	MIC S. aureus (S. aureus ATCC 6538; ATCC 6538)	MIC E. coli (E. coli ATCC 25992; ATCC 25992)	MIC E. faecalis (E. faecalis ATCC 29121; ATCC 29121)
CGGGICRTHNC [P18]	neither caused lysis of erythrocytes	excellent activity	moderate activity	128 µg/mL	32 µg/mL	16 µg/mL	>256 µg/mL	16 µg/mL	>256 µg/mL	128 µg/mL							
CC(C)[C@@H](N)C(=O)N[C@H](Cc1c[nH]cn1)C(=O)N[C@H](Cc1c[nH]c2ccccc12)C(=O)N[C@H](CC(=O)O)C(=O)N[C@H](Cc1ccccc1)C(=O)N[C@H](CCCNC(=N)N)C(=O)N[C@H](CCC(N)=O)C(=O)N[C@H](Cc1c[nH]c2ccccc12)C(=O)N[C@H](Cc1c[nH]c2ccccc12)C(=O)N[C@H](CCC(N)=O)C(=O)N1CCC[C@@H]1C(=O)N[C@H](CO)C(N)=O [P4, VHWDFRQWWQPS] (H-[dV][dH][dW][dD][dF][dR][dQ][dW][dW][dQ][dP][dS]-NH2)											128 µg/mL (≈ 76.6 µM)	64 µg/mL (≈ 38.3 µM)	32 µg/mL (≈ 19.2 µM)	>256 µg/mL	32 µg/mL (≈ 19.2 µM)	>256 µg/mL	32 µg/mL (≈ 19.2 µM)
CC(C)C[C@H]1NC(=O)[C@@H](CCC(N)=O)NC(=O)[C@@H](CO)NC(=O)[C@@H](CO)NC(=O)[C@@H](CO)NC(=O)[C@H]2CSCc3cc(cc(c3)CSC[C@H](C(N)=O)NC(=O)[C@@H](Cc3ccc(O)cc3)NC1=O)CSC[C@@H](N)C(=O)N[C@H]([C@H](C)O)C(=O)N[C@H](CCCNC(=N)N)C(=O)N[C@H](C(C)C)C(=O)N2 [P19, CTRVCSSSQLYC] (H-[dC][dT][dR][dV][dC][dS][dS][dS][dQ][dL][dY][dC]-NH2; linker 1-5-12 via TBMB)				>256 µg/mL	>256 µg/mL	128 µg/mL (≈ 87.5 µM)	>256 µg/mL	128 µg/mL (≈ 87.5 µM)	>256 µg/mL	>256 µg/mL							
CC(C)C[C@H]1NC(=O)[C@H](N)CSSC[C@H](C(N)=O)NC(=O)[C@@H](Cc2c[nH]c3ccccc23)NC(=O)[C@@H](CCCCN)NC(=O)[C@@H](CCC(=O)O)NC(=O)CNC(=O)[C@@H](CC(C)C)NC(=O)[C@@H](CCCCN)NC1=O [P9, CLKLGEKWC] (H-[dC][dL][dK][dL]G[dE][dK][dW][dC]-NH2; disulfide 1-9)											>256 µg/mL	64 µg/mL (≈ 59.5 µM)	32 µg/mL (≈ 29.7 µM)	>256 µg/mL	64 µg/mL (≈ 59.5 µM)	>256 µg/mL	64 µg/mL (≈ 59.5 µM)
CC(C)C[C@@H](NC(=O)[C@@H](CC(N)=O)NC(=O)[C@@H](CO)NC(=O)CNC(=O)[C@H](N)C(C)C)C(=O)N[C@H](CCCNC(=N)N)C(=O)N[C@H](CC(C)C)C(=O)N[C@H](CC(C)C)C(=O)N[C@H](Cc1c[nH]cn1)C(=O)N[C@H](CCC(N)=O)C(=O)N[C@H](Cc1c[nH]c2ccccc12)C(=O)N[C@H](CCCCN)C(N)=O [P3, VGSNLRLLHQWK] (H-[dV]G[dS][dN][dL][dR][dL][dL][dH][dQ][dW][dK]-NH2)											>256 µg/mL	64 µg/mL (≈ 44.1 µM)	32 µg/mL (≈ 22.1 µM)	>256 µg/mL	32 µg/mL (≈ 22.1 µM)	>256 µg/mL	32 µg/mL (≈ 22.1 µM)
